Measurements as given in PubChem BioAssay AID256 (DTP/NCI, 2004).
“And” between values parts separate entries of the source, which are not always exact repeats. Equal entries are not always repeated. Inconclusive results and toxic doses are left out. How the source made its calls: active means survival T/C of 150% or more; inactive means T/C below 125% in these data.

System: CD2F1 mice, L1210 leukemia ip, survival T/C
Assay: NCI In Vivo Anticancer Drug Screen. Data for tumor model L1210 Leukemia (intraperitoneal) in CD2F1 (CDF1) mice
Conditions: higher = longer survival
Method in brief: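 Each value reflects a quotient of treated over vehicle control outcomes in mice with a transplanted tumor.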

[1] = endpoint: mean survival time, dose: 100.0 mg/kg/injection, schedule: Q01DX001 (ip), vehicle: saline with Tween-80
[2] = endpoint: mean survival time, dose: 200.0 mg/kg/injection, schedule: Q01DX001 (ip), vehicle: saline with Tween-80
[3] = endpoint: mean survival time, dose: 400.0 mg/kg/injection, schedule: Q01DX001 (ip), vehicle: saline with Tween-80
[4] = endpoint: mean survival time, dose: 100.0 mg/kg/injection, schedule: Q04DX002 (ip), vehicle: saline with Tween-80
[5] = endpoint: mean survival time, dose: 200.0 mg/kg/injection, schedule: Q04DX002 (ip), vehicle: saline with Tween-80
[6] = endpoint: mean survival time, dose: 100.0 mg/kg/injection, schedule: Q01DX009 (ip), vehicle: saline with Tween-80
[7] = endpoint: mean survival time, dose: 200.0 mg/kg/injection, schedule: Q01DX009 (ip), vehicle: saline with Tween-80
[8] = endpoint: mean survival time, dose: 400.0 mg/kg/injection, schedule: Q01DX009 (ip), vehicle: saline with Tween-80
[9] = endpoint: mean survival time, dose: 100.0 mg/kg/injection, schedule: Q04DX003 (ip), vehicle: saline with Tween-80
[10] = endpoint: mean survival time, dose: 200.0 mg/kg/injection, schedule: Q04DX003 (ip), vehicle: saline with Tween-80
[11] = endpoint: mean survival time, dose: 400.0 mg/kg/injection, schedule: Q04DX003 (ip), vehicle: saline with Tween-80
[12] = endpoint: mean survival time, dose: 25.0 mg/kg/injection, schedule: Q01DX009 (ip), vehicle: saline with Tween-80
[13] = endpoint: mean survival time, dose: 50.0 mg/kg/injection, schedule: Q01DX009 (ip), vehicle: saline with Tween-80

Measured: T/C

c1cc2c3c(cccc3c1)C1C2C2c3cccc4cccc(c34)C12 (centres undefined)
inactive: [1] 93 % of control | [2] 97 % of control | [3] 100 % of control

N=S(=O)(c1ccccc1)c1ccccc1
inactive: [1] 98 % of control | [4] 110 % of control | [2] 94 % of control | [5] 93 % of control | [3] 107 % of control

O=C(N/N=C/c1ccc(O)cc1O)c1cccnc1
inactive: endpoint: mean survival time, dose: 6.25 mg/kg/injection, schedule: Q01DX009 (ip), vehicle: olive oil, sesame oil, peanut oil 102 % of control | endpoint: mean survival time, dose: 12.5 mg/kg/injection, schedule: Q01DX009 (ip), vehicle: olive oil, sesame oil, peanut oil 98 % of control | endpoint: mean survival time, dose: 25.0 mg/kg/injection, schedule: Q01DX009 (ip), vehicle: olive oil, sesame oil, peanut oil 98 % of control | endpoint: mean survival time, dose: 50.0 mg/kg/injection, schedule: Q01DX009 (ip), vehicle: olive oil, sesame oil, peanut oil 98 % of control | endpoint: mean survival time, dose: 100.0 mg/kg/injection, schedule: Q01DX009 (ip), vehicle: olive oil, sesame oil, peanut oil 100 % of control

CCOC(=O)CCC(C#N)(CC(=O)OCC)C(=O)OCC (centres undefined)
inactive: [1] 96 % of control | [2] 104 % of control | [3] 104 % of control

C/C(CC(C)C)=N\NC(=O)CNC(=O)c1ccccc1
inactive: [6] 90 % of control | [7] 92 % of control | [8] 96 % of control

C=C1CC2CCC1C2 (centres undefined)
inactive: [6] 96 % of control | [9] 104 % of control | [10] 98 % of control | [11] 98 % of control

CCOC(=O)c1[nH]c(=S)n(Cc2ccccc2)c1C(=O)OCC
inactive: endpoint: mean survival time, dose: 50.0 mg/kg/injection, schedule: Q04DX003 (ip), vehicle: saline with Tween-80 103 % of control | [9] 108 % of control | [10] 97 % of control

COc1ccc(NC(=O)Oc2ccc(C(C)(C)C)cc2)cc1
inactive: [12] 93 % of control | endpoint: mean survival time, dose: 25.0 mg/kg/injection, schedule: Q04DX002 (ip), vehicle: saline with Tween-80 104 % of control | [13] 97 % of control | endpoint: mean survival time, dose: 50.0 mg/kg/injection, schedule: Q04DX002 (ip), vehicle: saline with Tween-80 117 % of control | [6] 97 % of control | [4] 87 % of control and 93 % of control

CN=C(N)c1ccc(N=C(N)c2ccc(C(N)=Nc3ccc(C(N)=NC)cc3)cc2)cc1
inactive: endpoint: median survival time, dose: 3.75 mg/kg/injection, schedule: Q08HX018 (ip), vehicle: water 117 % of control | endpoint: median survival time, dose: 10.0 mg/kg/injection, schedule: Q01DX001 (iv), vehicle: saline 95 % of control | endpoint: median survival time, dose: 10.0 micrograms per hour, schedule: Q#X X001 (iv), vehicle: saline 97 % of control

COc1ccc(NC(=S)/C(=C(\[O-])c2ccc([N+](=O)[O-])cc2)[n+]2ccc(C(C)C)cc2)cc1
inactive: [6] 91 % of control | [7] 97 % of control

CSc1ncnc2c1cnn2C1OC(COC(C)=O)C(OC(C)=O)C1OC(C)=O (centres undefined)
inactive: endpoint: median survival time, dose: 9.0 mg/kg/injection, schedule: Q01DX005 (ip), vehicle: distilled water + Tween-80 101 % of control | endpoint: median survival time, dose: 9.0 mg/kg/injection, schedule: Q01DX009 (ip), vehicle: distilled water + Tween-80 100 % of control | endpoint: median survival time, dose: 18.0 mg/kg/injection, schedule: Q01DX005 (ip), vehicle: distilled water + Tween-80 98 % of control | endpoint: median survival time, dose: 18.0 mg/kg/injection, schedule: Q01DX009 (ip), vehicle: distilled water + Tween-80 101 % of control | endpoint: median survival time, dose: 36.0 mg/kg/injection, schedule: Q01DX005 (ip), vehicle: distilled water + Tween-80 108 % of control | endpoint: median survival time, dose: 36.0 mg/kg/injection, schedule: Q01DX009 (ip), vehicle: distilled water + Tween-80 100 % of control | endpoint: median survival time, dose: 72.0 mg/kg/injection, schedule: Q01DX009 (ip), vehicle: distilled water + Tween-80 107 % of control | endpoint: median survival time, dose: 144.0 mg/kg/injection, schedule: Q01DX005 (ip), vehicle: distilled water + Tween-80 118 % of control | endpoint: median survival time, dose: 144.0 mg/kg/injection, schedule: Q01DX009 (ip), vehicle: distilled water + Tween-80 113 % of control

N=P(N[P+](N)(c1ccccc1)c1ccccc1)(c1ccccc1)c1ccccc1
inactive: endpoint: mean survival time, dose: 1.56 mg/kg/injection, schedule: Q01DX009 (ip), vehicle: Klucel (hydroxypropylcellulose) (HPC) 103 % of control | endpoint: mean survival time, dose: 3.12 mg/kg/injection, schedule: Q01DX009 (ip), vehicle: Klucel (hydroxypropylcellulose) (HPC) 103 % of control | endpoint: mean survival time, dose: 6.25 mg/kg/injection, schedule: Q01DX009 (ip), vehicle: Klucel (hydroxypropylcellulose) (HPC) 91 % of control and 103 % of control

ClCCOC(c1ccc(Cl)cc1)c1ccc(Cl)cc1
inactive: endpoint: mean survival time, dose: 100.0 mg/kg/injection, schedule: Q04DX003 (ip), vehicle: saline + alcohol 96 % of control | endpoint: mean survival time, dose: 200.0 mg/kg/injection, schedule: Q04DX003 (ip), vehicle: saline + alcohol 94 % of control | endpoint: mean survival time, dose: 400.0 mg/kg/injection, schedule: Q04DX003 (ip), vehicle: saline + alcohol 100 % of control

O=Cc1nccc2c1[nH]c1ccccc12
inactive: [9] 95 % of control | [10] 104 % of control | [11] 100 % of control

CCCCOCN(COCCCC)C(C)Cc1ccccc1 (centres undefined)
inactive: endpoint: mean survival time, dose: 12.5 mg/kg/injection, schedule: Q01DX009 (ip), vehicle: saline with Tween-80 94 % of control and 97 % of control | [12] 97 % of control and 102 % of control | [13] 93 % of control and 102 % of control | [6] 114 % of control and 95 % of control | [7] 123 % of control and 112 % of control

C/C=C/CC(C/C=C/C)C1CC[N-]CC1.C/C=C/CC(C/C=C/C)C1CC[N-]CC1.[Cl][Pt+2]([Cl])([Cl])[Cl]
inactive: endpoint: mean survival time, dose: 12.5 mg/kg/injection, schedule: Q01DX009 (ip), vehicle: other 93 % of control | endpoint: mean survival time, dose: 100.0 mg/kg/injection, schedule: Q01DX009 (ip), vehicle: other 88 % of control

CCCCCCCCCCCCc1ccc(NC(C)=O)cc1
inactive: endpoint: mean survival time, dose: 100.0 mg/kg/injection, schedule: Q04DX003 (ip), vehicle: other 97 % of control | endpoint: mean survival time, dose: 200.0 mg/kg/injection, schedule: Q04DX003 (ip), vehicle: other 95 % of control | endpoint: mean survival time, dose: 400.0 mg/kg/injection, schedule: Q04DX003 (ip), vehicle: other 100 % of control

O=c1[nH]cc(N=Cc2ccccc2O)c(=O)[nH]1.[Cl][Pt]
inactive: endpoint: mean survival time, dose: 3.13 mg/kg/injection, schedule: Q04DX003 (ip), vehicle: water 96 % of control | endpoint: mean survival time, dose: 6.25 mg/kg/injection, schedule: Q04DX003 (ip), vehicle: water 96 % of control | endpoint: mean survival time, dose: 12.5 mg/kg/injection, schedule: Q04DX003 (ip), vehicle: water 97 % of control | endpoint: mean survival time, dose: 25.0 mg/kg/injection, schedule: Q04DX003 (ip), vehicle: water 108 % of control | endpoint: mean survival time, dose: 50.0 mg/kg/injection, schedule: Q04DX003 (ip), vehicle: water 102 % of control | endpoint: mean survival time, dose: 100.0 mg/kg/injection, schedule: Q04DX003 (ip), vehicle: water 100 % of control | endpoint: mean survival time, dose: 200.0 mg/kg/injection, schedule: Q04DX003 (ip), vehicle: water 108 % of control

CC(=O)Oc1c(Br)cc2cc(Br)ccc2c1Br
inactive: [4] 90 % of control | [5] 98 % of control | endpoint: mean survival time, dose: 400.0 mg/kg/injection, schedule: Q04DX002 (ip), vehicle: saline with Tween-80 98 % of control

CN(C)c1ccc(C=NCCCN=Cc2ccc(N(C)C)cc2)cc1
inactive: [6] 96 % of control | [9] 95 % of control | [7] 90 % of control | [10] 107 % of control | [8] 93 % of control | [11] 86 % of control

O=P(c1ccccc1)(c1ccccc1)P(=O)(c1ccccc1)c1ccccc1
inactive: [1] 90 % of control | [2] 90 % of control | [3] 96 % of control

C=CCN(C(C)=O)c1nnc(N(CC=C)C(C)=O)s1
inactive: [1] 100 % of control | [2] 100 % of control | [3] 100 % of control

CSc1nc(=O)[nH]nc1SCc1ccccc1
inactive: endpoint: mean survival time, dose: 100.0 mg/kg/injection, schedule: Q01DX001 (ip), vehicle: carboxymethylcellulose (CMC) 100 % of control | endpoint: mean survival time, dose: 200.0 mg/kg/injection, schedule: Q01DX001 (ip), vehicle: carboxymethylcellulose (CMC) 91 % of control | endpoint: mean survival time, dose: 400.0 mg/kg/injection, schedule: Q01DX001 (ip), vehicle: carboxymethylcellulose (CMC) 89 % of control

COc1ccc(Nc2ccc(C(=C3C=CC(=[N+](C)CCC#N)C=C3)c3ccc(N(C)CCC#N)cc3)cc2)cc1
inactive: [4] 90 % of control

CCOC(=O)Cc1nnc2ncnc(N)c2n1
inactive: endpoint: mean survival time, dose: 100.0 mg/kg/injection, schedule: Q01DX001 (ip), vehicle: other 101 % of control | endpoint: mean survival time, dose: 200.0 mg/kg/injection, schedule: Q01DX001 (ip), vehicle: other 103 % of control | endpoint: mean survival time, dose: 400.0 mg/kg/injection, schedule: Q01DX001 (ip), vehicle: other 98 % of control
